Results reported in patent publication US12054509B2, “Antimicrobial compounds, compositions, and uses thereof” (Lakewood Amedex, Inc., priority 2017, dated 2024).

Assays:
P. aeruginosa = experiment: MIC in lysogeny broth (LB) at pH 4; assay type: cell-based; details: Pseudomonas aeruginosa
Protocol: (§1) The MICs are also determined using lysogeny broth (LB) at pH 4 as the growth medium. Under these conditions, Nu-8 is active against E. coli and P. aeruginosa with MICs of 54 and 27 mg/mL, respectively.

E. coli = experiment: MIC in lysogeny broth (LB) at pH 4; assay type: cell-based; details: Escherichia coli
Protocol: as §1

E. coli (ATCC 25922) = experiment: Time kill assay in saline at pH 3.5 (Example 27); assay type: cell-based; details: for Log10 CFU/mL: pH 3.5
Protocol: Log10 5 CFU of E. coli (ATCC 25922) were suspended in saline. Additionally, a sample of the saline only was prepared as a vehicle control (V.C.). Solutions of Nu-3, Nu-8, and Nu-10 at varying concentrations were adjusted to pH 3.5 with citric acid and added to the E. coli suspensions. At each time point (0, 1, 2.5, 5, 10, and 20 minutes), the treated bacterial suspensions were plated and incubated for 24 hrs, and each plate was read to determine the CFU count.
Tables 12-14 provide the time kill assay data for Nu-3 (Table 12), Nu-8 (Table 13) and Nu-10 (Table 14) against E. coli.

[1] = tested on: Escherichia coli (strain CFT073, TPPS 1041); experiment: Urinary tract infection model in BALB/c mice, confirmatory efficacy (Example 11); assay type: in vivo; details: for bacterial burden (bladder): 20 minutes post-treatment
Source text: Female BALB/c mice (20-22 g) ordered from Envigo are acclimated to housing conditions and handled in accordance with Animal Use Protocol (AUP) number TP-08. Animals are fed irradiated Teklad Global 29 18 Rodent Diet and water ad libitum. Mice are housed 6/cage in static cages with irradiated ⅛″ Teklad corn cobbedding 7902 inside bioBubble® clean rooms that provide H.E.P.A filtered air into the bubble environment at 100 complete air changes per hour. The environment is controlled to a temperature range of 74°±4° F. and a humidity range of 30-70%. All procedures carried out in this experiment are conducted in compliance with the laws, regulations, and guidelines of the National Institutes of Health and with the approval of the TransPharm Preclinical Solutions Animal Care and Use Committee.
A clinical isolate of Escherichia coli (strain CFT073, TPPS 1041) are procured from the University of Michigan.
The organism is grown overnight at 37° C. in ambient atmosphere on trypticase soy agar plates supplemented with 5% sheep blood cells. The culture is aseptically swabbed and transferred to tubes of trypticase soy broth. The optical density is determined at 600 nm. The culture is diluted to provide an inoculum of approximately 7.5 login CFU per mouse in a volume of 30 μL. Instillation of the bacterial challenge constituted time 0 hour for the study. Inoculum counts are estimated before inoculation by optical density and confirmed after inoculation by dilution and back counts.
One hour prior to bacterial challenge, water is removed from animal cages. On Day 0 at 0 hours, mice are anesthetized using isoflurane and urine is expressed from the bladder by applying gentle pressure to the abdomen with the thumb. Mice are infected with bacteria via transurethral injection in a volume of 30 μL. Water is returned to the cages immediately following the challenge. Challenge is performed in a BL2 surgical suite.
Nu-8 (Test article) is prepared immediately before each dosing. Nu-8 is dissolved in sterile saline and adjusted to pH 3.5 with phosphoric acid. At 23 hours post-challenge, water is removed from animal cages. One hour later, mice are anesthetized using isoflurane and residual urine is expressed from the bladder. Mice are treated with test article or controls via transurethral dosing in a volume of 30 μL according to TABLE 9 (showing Animal Challenge and Treatment Schedule). All treatments are administered in a BSL2 surgical suite.
Immediately following treatment administration, the urethral opening is occluded using Locktite gel superglue. One drop of glue is placed at the urethral opening and the opening is held together for 5-10 seconds using tissue forceps to ensure the urethral opening is occluded and the adhesive is dry. Animals remained under anesthetic following urethral occlusion. […]

## CCCCOP(=O)(O)OC[C@H]1O[C@@H](n2ccc(N)nc2=O)C[C@@H]1OP(=O)(O)OCCCC [Nu-8, sodium ((2R,3S,5R)-5-(4-amino-2-oxopyrimidin-1(2H)-yl)-3-((butoxyoxidophosphor-yl)oxy)tetrahydrofuran-2-yl)methyl butyl phosphate]
P. aeruginosa
  MIC: 27 mg/mL
E. coli
  MIC: 54 mg/mL
E. coli (ATCC 25922); 2.5% solution, 0 min
  Log10 CFU/mL: 5.20 Log10 CFU/mL
E. coli (ATCC 25922); 2.5% solution, 1 min
  Log10 CFU/mL: 4.93 Log10 CFU/mL
E. coli (ATCC 25922); 2.5% solution, 2.5 min
  Log10 CFU/mL: 4.90 Log10 CFU/mL
E. coli (ATCC 25922); 2.5% solution, 5 min
  Log10 CFU/mL: 4.93 Log10 CFU/mL
E. coli (ATCC 25922); 2.5% solution, 10 min
  Log10 CFU/mL: 4.90 Log10 CFU/mL
E. coli (ATCC 25922); 2.5% solution, 20 min
  Log10 CFU/mL: 4.93 Log10 CFU/mL
E. coli (ATCC 25922); 5% solution, 0 min
  Log10 CFU/mL: 5.20 Log10 CFU/mL
E. coli (ATCC 25922); 5% solution, 1 min
  Log10 CFU/mL: 4.88 Log10 CFU/mL
E. coli (ATCC 25922); 5% solution, 2.5 min
  Log10 CFU/mL: 4.92 Log10 CFU/mL
E. coli (ATCC 25922); 5% solution, 5 min
  Log10 CFU/mL: 4.90 Log10 CFU/mL
E. coli (ATCC 25922); 5% solution, 10 min
  Log10 CFU/mL: 4.95 Log10 CFU/mL
E. coli (ATCC 25922); 5% solution, 20 min
  Log10 CFU/mL: 4.90 Log10 CFU/mL
E. coli (ATCC 25922); 10% solution, 0 min
  Log10 CFU/mL: 5.20 Log10 CFU/mL
E. coli (ATCC 25922); 10% solution, 1 min
  Log10 CFU/mL: 4.86 Log10 CFU/mL
E. coli (ATCC 25922); 10% solution, 2.5 min
  Log10 CFU/mL: 4.79 Log10 CFU/mL
E. coli (ATCC 25922); 10% solution, 5 min
  Log10 CFU/mL: 4.76 Log10 CFU/mL
E. coli (ATCC 25922); 10% solution, 10 min
  Log10 CFU/mL: 4.71 Log10 CFU/mL
E. coli (ATCC 25922); 10% solution, 20 min
  Log10 CFU/mL: 4.75 Log10 CFU/mL
E. coli (ATCC 25922); concentration of 10%, at 20 mins
  kill of the bacteria: modest kill
[1]; 205 mg/kg pH 3.5 transurethral
  bacterial burden (bladder): 6.5 log 10
[1]; 410 mg/kg pH 3.5 transurethral
  bacterial burden (bladder): 5.0 log 10
[1]; 820 mg/kg pH 3.5 transurethral, 10 minutes post-treatment
  average bladder CFU burden: 6.3 log 10
[1]; 820 mg/kg pH 3.5 transurethral
  bacterial burden (bladder): 5.4 log 10
